These results are taken from patent US7018996B2, “Antibiotics AW998A, AW998B, AW998C and AW998D” (Wyeth Holdings Corporation, priority 2002, dated 2006).

Converted amounts (≈) assume the structure as drawn. Read-outs that look alike come from different tables or passages of the source. Bridge positions count the residues as written; N and C are the ends. Square brackets hold non-standard residues; d marks the D form. Peptide text beside a SMILES is read from it. * marks the point of attachment. Tetradecenoyl(2E,13-Me) = CC(C)CCCCCCCCC/C=C/C(=O)*; X1 = CC(C)CCCCCCCC/C=C/C(=O)*; Pip = O=C(O)[CH]1CCCCN1; Dap = NC[CH](N)C(=O)O

Format in all cases: cell-based
For assay [1], the system named is E. faecalis GC 4555 (ATCC). Put plainly: MIC, broth dilution, E. faecalis GC 4555 (ATCC). As to conditions: Enterococcus faecalis, 18 hours at 35° C., read-out: Antimicrobial Activity (MIC). How it is done: (§1) The minimum inhibitory concentration (MIC), the lowest concentration of the antibiotic which inhibits growth of the test organism, is determined by the broth dilution method using Muller-Hinton II […] (Baltimore Biological Laboratories) following the recommendations of the National Committee for Clinical Laboratory Standards [Methods for dilution antimicrobial susceptibility tests for bacteria that grow aerobically, approved standard M7-A2, National Committee for Clinical Laboratory Standards, Villanova, Pa.].
(§2) An inoculum level of 5×10^5 CFU/mL, and a range of antibiotic concentrations (64–0.06 μg/mL) is used. The MIC is determined after the microtiter plates are incubated for 18 hours at 35° C. in an ambient air incubator. The test organisms include a spectrum of Gram-positive bacteria comprised of Staphylococcus sp., Streptococcus sp. and Enterococcus sp.
(§3) The in vitro antibacterial activity of AW998A, AW998B, AW998C and AW998D is determined against a spectrum of Gram-positive and Gram-negative bacteria by a standard broth dilution method. Serial dilution of the compounds are made in Mueller-Hinton broth and inoculated with a bacterial suspension. The lowest concentration of compound that inhibited the growth of a bacterial strain after 18 hours of incubation at 35° C. is reported as the minimal inhibitory concentration (MIC) for that strain.
Background: Dilution methods test growth across graded concentrations, often in twofold steps.

The test system of assay [2] is S. pneumoniae GC 1894. Kind of assay: MIC, broth dilution, S. pneumoniae GC 1894. To be noted: Streptococcus pneumoniae, GC1894, 18 h, 18 hours at 35° C., read-out: Antimicrobial Activity (MIC). The method, then:
as §1, §2, §3

Assay [3] relates to E.coil GC 4560 (imp). Kind of assay: MIC, broth dilution, E.coil GC 4560 (imp). As to conditions: Escherichia coli, 18 h, read-out: Antimicrobial Activity (MIC). The method, then:
as §1, §2
(§4) The test organisms also include a spectrum of Gram-negative bacteria comprised of E. coli GC, M. catarrhalis and H. influenzae.
as §3

Assay [4] relates to E. faecalis GC 2242 (VRE). Put plainly: MIC, broth dilution, E. faecalis GC 2242 (VRE). As to conditions: Enterococcus faecalis, 18 hours at 35° C., read-out: Antimicrobial Activity (MIC). How it is done: as §1, §2, §3
The test system of assay [5] is B. subtilis GC 6344 (168). Put plainly: MIC, broth dilution, B. subtilis GC 6344 (168). To be noted: Bacillus subtilis, 18 hours at 35° C., read-out: Antimicrobial Activity (MIC). How it is done:
as §1, §2, §3

The test system of assay [6] is C. albicans GC 3066 (Yeast). Kind of assay: MIC, broth dilution, C. albicans GC 3066 (Yeast). To be noted: Candida albicans, read-out: Antimicrobial Activity (MIC).
Assay [7] concerns S. aureus GC 4543 (Smith). Put plainly: MIC, broth dilution, S. aureus GC 4543 (Smith). As to conditions: Staphylococcus aureus, 18 hours at 35° C., read-out: Antimicrobial Activity (MIC). How it is done:
as §1, §2, §3

In assay [8] the test system is M. catarrhalis GC 6907* (clinical). Put plainly: MIC, broth dilution, M. catarrhalis GC 6907 (clinical). To be noted: Moraxella catarrhalis, read-out: Antimicrobial Activity (MIC). The method, then: as §1, §2, §4, §3
Assay [9] has as its system H. influenzae GC 6896 <> (ATTC). Put plainly: MIC, broth dilution, H. influenzae GC 6896 (ATTC). To be noted: Haemophilus influenzae, read-out: Antimicrobial Activity (MIC). The method, then: as §1, §2, §4, §3
The test system of assay [10] is S. aureus GC 2216 (ATCC). Kind of assay: MIC, broth dilution, S. aureus GC 2216 (ATCC). As to conditions: Staphylococcus aureus, 18 hours at 35° C., read-out: Antimicrobial Activity (MIC). How it is done: as §1, §2, §3
Assay [11] has as its system E. coli GC 4559 (wt). Put plainly: MIC, broth dilution, E. coli GC 4559 (wt). As to conditions: Escherichia coli, read-out: Antimicrobial Activity (MIC). How it is done: as §1, §2, §4, §3
Assay [12] concerns S. aureus GC 1131 (MRSA). Put plainly: MIC, broth dilution, S. aureus GC 1131 (MRSA). To be noted: Staphylococcus aureus, 18 hours at 35° C., read-out: Antimicrobial Activity (MIC). How it is done: as §1, §2, §3
[13] abbreviates: S. pneumoniae GC 1894* (5% LHB).

As to `CCC(C)C1NC(=O)C(C(C)O)NC(=O)CNC(=O)C(CC(=O)O)NC(=O)CNC(=O)C(CC(=O)O)NC(=O)CNC(=O)C2CCCCN2C(=O)C(NC(=O)C(CC(=O)O)NC(=O)/C=C/CCCCCCCCCC(C)C)CNC(=O)C2CCCN2C1=O` (stereo not drawn) [AW998A] ({Tetradecenoyl(2E,13-Me)}-D[Dap][Pip]GDGDGTIP; lactam 2-C; configuration not given here), the MIC was determined as 32 µg/mL (≈ 25.7 µM) in assay [1]; 4 µg/mL (≈ 3.21 µM) in [2] (setting [13]); 2 µg/mL (≈ 1.6 µM) in assay [2] (S. pneumoniae GC 1894+ (THY)); 32 µg/mL (≈ 25.7 µM) in assay [3]; 64 µg/mL (≈ 51.3 µM) in assay [4]; 32 µg/mL (≈ 25.7 µM) in assay [5]. Besides, the MIC in assay [6] (C. albicans GC 3066 (Yeast), 18 hours at 35° C.) is 128 µg/mL (≈ 103 µM); in assay [7] it was 8 µg/mL (≈ 6.41 µM); in assay [8] (M. catarrhalis GC 6907* (clinical), 18 hours at 35° C.), > 128 µg/mL; in assay [9] (H. influenzae GC 6896 <> (ATTC), 18 hours at 35° C.), > 128 µg/mL; in assay [10], 8 µg/mL (≈ 6.41 µM); in [11] (E. coli GC 4559 (wt), 18 hours at 35° C.) it was > 128 µg/mL. Besides, the MIC in [12] came out at 16 µg/mL (≈ 12.8 µM).

In the case of `CCC(C)C1NC(=O)C(C(C)O)NC(=O)CNC(=O)C(CC(=O)O)NC(=O)CNC(=O)C(CC(=O)O)NC(=O)CNC(=O)C2CCCCN2C(=O)C(NC(=O)C(CC(=O)O)NC(=O)/C=C/CCCCCCCCC(C)C)CNC(=O)C2CCCN2C1=O` (stereo not drawn) [AW998C] (X1-D[Dap][Pip]GDGDGTIP; lactam 2-C; configuration not given here), the MIC in assay [1] was 128 µg/mL (≈ 104 µM); in [2] (setting [13]), 8 µg/mL (≈ 6.49 µM); in assay [2] (S. pneumoniae GC 1894+ (THY)) it was 64 µg/mL (≈ 51.9 µM); in assay [3], > 128 µg/mL; in assay [4], 128 µg/mL (≈ 104 µM); in [5], 128 µg/mL (≈ 104 µM). In addition, the MIC in [6] (18 h) was > 128 µg/mL; in assay [7], 64 µg/mL (≈ 51.9 µM); in assay [8] (18 h), > 128 µg/mL; in assay [9] (18 h) it was > 128 µg/mL; in assay [10], 64 µg/mL (≈ 51.9 µM); in assay [11] (18 h), > 128 µg/mL. Also, in assay [12], the MIC amounted to 128 µg/mL (≈ 104 µM).

As for `CC(C)CCCCCCCCC/C=C/C(=O)NC(CC(=O)O)C(=O)NC1CNC(=O)C2CCCN2C(=O)C(C(C)C)NC(=O)C(C(C)O)NC(=O)CNC(=O)C(CC(=O)O)NC(=O)CNC(=O)C(CC(=O)O)NC(=O)CNC(=O)C2CCCCN2C1=O` (stereo not drawn) [AW998D] ({Tetradecenoyl(2E,13-Me)}-D[Dap][Pip]GDGDGTVP; lactam 2-C; configuration not given here), the MIC was 128 µg/mL (≈ 104 µM) in assay [1]; 16 µg/mL (≈ 13 µM) in assay [2] (setting [13]); 128 µg/mL (≈ 104 µM) in assay [2] (S. pneumoniae GC 1894+ (THY)); > 128 µg/mL in assay [3]; 128 µg/mL (≈ 104 µM) in [4]; 128 µg/mL (≈ 104 µM) in [5]. For the same compound, the MIC in [6] (18 h) was > 128 µg/mL; in assay [7], 128 µg/mL (≈ 104 µM); in [8] (18 h), > 128 µg/mL; in assay [9] (18 h), > 128 µg/mL; in assay [10], 128 µg/mL (≈ 104 µM); in assay [11] (18 h), > 128 µg/mL. Further, the MIC in [12] was found to be 128 µg/mL (≈ 104 µM).
